The values below come from patent US9897592B2, “Methods for identifying arthropod repellents and attractants, and compounds and compositions identified by such methods” (The Regents of the University of California, priority 2013, dated 2018).

Where a name gives a salt, the structure may show the parent alone.

For this assay, the system named is cpA neuron. The assay can be described thus: Single-sensillum recording: activation of cpA neuron by odorants. In kind it is cell-based, Aedes aegypti. As to conditions: for Activation (spikes s^−1): A. aegypti cpA, 0.5-s pulses, odorants 10^−2 in paraffin oil or water, solvent response subtracted; for Activation (spikes s−1): cpA neuron, 20 compounds from the top 200 SVM ligand predictions, negative values = inhibition, N = 4. As to the method: FIG. 3b depicts representative traces and mean responses of the A. aegypti cpA neuron to 0.5-s pulses of 138 predicted compounds screened using single-sensillum recordings, in which odorants were diluted to 10^−2 in paraffin oil or water, and responses to solvent have been subtracted, n=2-6, and error bars are s.d.
FIG. 5f is a bar graph illustrating the mean responses of the A. aegypti cpA neuron to 0.5-s pulses of 22 newly predicted compounds screened as in FIG. 3b, where salmon bars correspond to odorants found in human odor, odorants were diluted to 10^−2 in paraffin oil or water, and responses to solvent have been subtracted, and n=2-5.
Adult female A. aegypti (Linnaeus 1762) (Rockefeller strain) A. gambiae sensu stricto Giles 1902 (G3 strain), or C. quinquefasciatus Say 1823 were tested 3-12 days post-emergence with single-sensillum extracellular recordings. Chemicals were obtained from Sigma-Aldrich at the highest purity (typically >99%) and were dissolved in paraffin oil or water. […] Response to clean beads was subtracted from the results reported. Only sensilla with cpA activity of <20 spikes s^−1 to negative control were considered for analysis.
CpA-off and sham treated mosquitoes were pre-treated for 3 min in an upended 1 L glass dish in which 100 μl of fresh butyryl chloride (1%) or paraffin oil was allowed to vaporize for 10-20 min. The odor delivery system for different screens is shown in FIG. 7b; solvent responses during the same recording session were subtracted. Inhibition screen was tested. For the ultra-prolonged activator the 3-s stimulus was delivered from a 10 ml disposable pipette using a CS-55 stimulus controller (Syntech), CO2 was delivered, and responses to subsequent odor stimuli were calculated by subtracting baseline activity 1 s prior to each stimulus. When responses to repeated pulses of cyclopentanone and CO2 were compared, baseline activity between seconds 5 and 6 following each stimulus was subtracted. Spike counting was done manually or with Igor Pro6.2 (Wavemetrics) with the Neuromatic v2.00 macro (by Jason Rothman), and peak-to-peak spike amplitudes for FIG. 8 were analysed in Clampfit 10.3 (Molecular Devices).
From the large list of cpA receptor ligands predicted from Example 3 above, 138 compounds were selected based on desirable criteria for application such as smell, presence in natural sources, human safety profile, and cost to procure. These compounds were tested individually using single-sensillum electrophysiology on the cp sensillum of female A. aegypti, according to the procedure described in Example 1 above.

As to `CC(C)=CCC/C(C)=C/COC=O` [[(2E)-3,7-dimethylocta-2,6-dienyl] formate], the “Activation (spikes s^−1)” value was −2.5 spikes s^−1.
With `CCCO` [propan-1-ol], the “Activation (spikes s−1)” value is 60.8 spikes s−1.
Regarding `CCc1cccs1` [2-ethylthiophene], the “Activation (spikes s−1)” value is 9.3 spikes s−1.
In the case of `OC1CCCCC1` [cyclohexanol], the “Activation (spikes s^−1)” value was determined as 59.0 spikes s^−1.
Same read-out and setting: with `CC(=O)C=C(C)C` [4-methylpent-3-en-2-one] the figure was 34.0 spikes s^−1.
Take `CCc1ccc[nH]1` [2-ethyl-1H-pyrrole]: the “Activation (spikes s^−1)” value is 8.5 spikes s^−1.
Still for that read-out and setting: with `CC1CCC(=O)C1=O` (stereo not shown) [3-methylcyclopentane-1,2-dione] the figure was 3.5 spikes s^−1; with `CCC(C)C(N)C(=O)O` (stereo not shown) [2-amino-3-methylpentanoic acid], −2.5 spikes s^−1; with `CC1=CCC(=O)O1` [5-methyl-3H-furan-2-one], 56.0 spikes s^−1.
For the compound `CC1CCCC(C)N1` (stereo not shown) [2,6-dimethylpiperidine], the “Activation (spikes s^−1)” value was found to be 2.5 spikes s^−1.
On the same count and under the same terms, with `CCC/C=C/CO` [(E)-hex-2-en-1-ol] the figure was 31.0 spikes s^−1; with `OCC1CCCC1` [cyclopentylmethanol], 47.5 spikes s^−1; with `C[N+](C)(C)CC(=O)[O-]` [2-(trimethylazaniumyl)acetate], 2.5 spikes s^−1.
Regarding `C=CCCC` [1-pentene], the “Activation (spikes s−1)” value was 10.3 spikes s−1.
On to `Cc1cncc(C)n1` [2,6-dimethylpyrazine], for which the “Activation (spikes s^−1)” value amounted to 14.8 spikes s^−1.
For `COC(=O)C(C)C` [methyl 2-methylpropanoate], the “Activation (spikes s^−1)” value came to 49.4 spikes s^−1.
Turning to `CCOC(C)=O` [ethyl acetate], the “Activation (spikes s^−1)” value worked out at 62.4 spikes s^−1.
The same measure, in the same setting: with `COc1nccnc1C` [2-methoxy-3-methylpyrazine] the figure was −27.5 spikes s^−1; with `CC(=O)OCC1CCCO1` (stereo not shown) [oxolan-2-ylmethyl acetate], 10.0 spikes s^−1.
Still for that read-out and setting: to `CCC(=O)C(=O)O` [2-oxobutanoic acid] belongs 7.0 spikes s^−1; to `CC(S)C(C)S` (stereo not shown) [butane-2,3-dithiol], 25.0 spikes s^−1.
The same measure, in the same setting: with `O=Cc1cnc[nH]1` [1H-imidazole-5-carbaldehyde] the figure was 2.5 spikes s^−1.
As to `Cc1ncsc1CCO` [2-(4-methyl-1,3-thiazol-5-yl)ethanol], the “Activation (spikes s^−1)” value came out at 4.5 spikes s^−1.
Take `OCCCCCc1ccccc1` [5-phenylpentan-1-ol]: the “Activation (spikes s^−1)” value is −3.0 spikes s^−1.
Take `C/C=C(\C)C(=O)OCCc1ccccc1` [2-phenylethyl (E)-2-methylbut-2-enoate]: the “Activation (spikes s^−1)” value was 2.5 spikes s^−1.
Still for that read-out and setting: with `CCOC=O` [ethyl formate] the figure was 34.5 spikes s^−1.
On to `CC(C)CO` [2-methylpropan-1-ol], for which the “Activation (spikes s−1)” value is on record as 95.0 spikes s−1.
Consider `CC(C)=CCC/C(C)=C/C(=O)O` [(2E)-3,7-dimethylocta-2,6-dienoic acid], for which the “Activation (spikes s^−1)” value was 3.0 spikes s^−1.
Turning to `CC(C)SCc1ccco1` [2-(propan-2-ylsulfanylmethyl)furan], the “Activation (spikes s^−1)” value is reported as −0.5 spikes s^−1.
With `CC(C)CC#N` [3-methylbutanenitrile], the “Activation (spikes s^−1)” value is on record as 75.8 spikes s^−1.
Take `O=COC/C=C/c1ccccc1` [[(E)-3-phenylprop-2-enyl] formate]: the “Activation (spikes s^−1)” value is 3.0 spikes s^−1.
Turning to `CC(=O)c1ccc[nH]1` [1-(1H-pyrrol-2-yl)ethanone], the “Activation (spikes s^−1)” value came to 1.5 spikes s^−1.
Regarding `CC1CCCC1` [methylcyclopentane], the “Activation (spikes s−1)” value is listed as 16.3 spikes s−1.
In the case of `O=C1CCCC(=O)C1` [cyclohexane-1,3-dione], the “Activation (spikes s^−1)” value is 1.5 spikes s^−1.
For the compound `COC(=O)OC` [dimethyl carbonate], the “Activation (spikes s^−1)” value was determined as 73.6 spikes s^−1.
As to `C=C(C)CCO` [3-methylbut-3-en-1-ol], the “Activation (spikes s−1)” value is 64.3 spikes s−1.
For the compound `Cn1cccc1` [1-methylpyrrole], the “Activation (spikes s^−1)” value is reported as 54.2 spikes s^−1.
In the case of `CC1CCCO1` (stereo not shown) [2-methyloxolane], the “Activation (spikes s−1)” value is recorded as 82.5 spikes s−1.
Consider `CC(C)=CCCC(C)CCO` (stereo not shown) [3,7-dimethyloct-6-en-1-ol], for which the “Activation (spikes s^−1)” value came out at 1.5 spikes s^−1.
Same read-out and setting: to `CC(C)Cc1nccs1` [2-(2-methylpropyl)-1,3-thiazole] belongs 12.0 spikes s^−1.
Regarding `C/C=C/C(=O)OCC` [ethyl (E)-but-2-enoate], the “Activation (spikes s^−1)” value is listed as 22.0 spikes s^−1.
As for `CCCC(=O)C(=O)O` [2-oxopentanoic acid], the “Activation (spikes s^−1)” value stood at 0.0 spikes s^−1.
For the compound `C=CCOC(=O)CCC` [prop-2-enyl butanoate], the “Activation (spikes s^−1)” value worked out at 16.0 spikes s^−1.
On to `CCC=O` [propanal], for which the “Activation (spikes s−1)” value is given as −33.8 spikes s−1.
Same read-out and setting: with `COC=O` [methyl formate] the figure was 59.3 spikes s−1.
In the case of `CC(C)[C@H](N)C(=O)O` [(2S)-2-amino-3-methylbutanoic acid], the “Activation (spikes s^−1)” value is 3.5 spikes s^−1.
The same measure, in the same setting: with `CCCCCCC1CCCC(=O)O1` (stereo not shown) [6-hexyloxan-2-one] the figure was 1.5 spikes s^−1.
Consider `Cc1ccsc1` [3-methylthiophene], for which the “Activation (spikes s−1)” value was 33.8 spikes s−1.
As for `C=CCOC(=O)CC` [prop-2-enyl propanoate], the “Activation (spikes s^−1)” value came out at 49.5 spikes s^−1.
Still for that read-out and setting: to `Cc1nccnc1CC(C)C` [2-methyl-3-(2-methylpropyl)pyrazine] belongs 1.0 spikes s^−1; to `CCc1cnccn1` [2-ethylpyrazine], 34.5 spikes s^−1.
Same read-out and setting: with `CC1OCCC1=O` (stereo not shown) [2-methyloxolan-3-one] the figure was 58.4 spikes s^−1.
As for `O=C1CCCCN1` [piperidin-2-one], the “Activation (spikes s^−1)” value was 0.0 spikes s^−1.
Regarding `Sc1cccs1` [thiophene-2-thiol], the “Activation (spikes s−1)” value is −35.5 spikes s−1.
With `CCCC(=O)OCCc1ccccc1` [2-phenylethyl butanoate], the “Activation (spikes s^−1)” value was −5.5 spikes s^−1.
The same measure, in the same setting: to `CCCC1OCC(C)O1` (stereo not shown) [4-methyl-2-propyl-1,3-dioxolane] belongs 13.0 spikes s^−1.
Still for that read-out and setting: to `C=CCCC(C)=O` [hex-5-en-2-one] belongs 63.4 spikes s^−1.
Still for that read-out and setting: to `C/C=C\C(=O)OCC(C)C` [2-methylpropyl (Z)-but-2-enoate] belongs −5.0 spikes s^−1; to `CC(=O)CC(=O)OCc1ccccc1` [benzyl 3-oxobutanoate], −1.5 spikes s^−1; to `COCc1ccccc1` [methoxymethylbenzene], 12.0 spikes s^−1.
With `CC1=CC(O)CCC1` (stereo not shown) [3-methylcyclohex-2-en-1-ol], the “Activation (spikes s^−1)” value is reported as 23.0 spikes s^−1.
The same measure, in the same setting: to `CC(C)=CC(=O)O` [3-methylbut-2-enoic acid] belongs 0.5 spikes s^−1.
Regarding `CCc1cccnc1` [3-ethylpyridine], the “Activation (spikes s^−1)” value stood at 42.5 spikes s^−1.
Take `C1CCCC1` [cyclopentane]: the “Activation (spikes s−1)” value is reported as 41.8 spikes s−1.
